Assays:
[1] = tested on: isolated chromaffin granules; settings: role: inhibitor; 1 to 10 mM PEP; cited from earlier work
[2] = molecular target: T1, V-ATPase (Bos taurus, UniProt P31404+P31408); experiment: ATP-dependent proton transport by V-ATPase (acridine orange fluorescence quenching); assay type: biochemical, cattle; settings: role: inhibitor
T1 construct: Chromaffin granule membranes were prepared from adrenal glands collected from slaughtered cattle; from tissue; host or cells: cattle adrenal glands, chromaffin granule membranes (sucrose density gradient)
T1 sequence (P31404 whole entry, looked up): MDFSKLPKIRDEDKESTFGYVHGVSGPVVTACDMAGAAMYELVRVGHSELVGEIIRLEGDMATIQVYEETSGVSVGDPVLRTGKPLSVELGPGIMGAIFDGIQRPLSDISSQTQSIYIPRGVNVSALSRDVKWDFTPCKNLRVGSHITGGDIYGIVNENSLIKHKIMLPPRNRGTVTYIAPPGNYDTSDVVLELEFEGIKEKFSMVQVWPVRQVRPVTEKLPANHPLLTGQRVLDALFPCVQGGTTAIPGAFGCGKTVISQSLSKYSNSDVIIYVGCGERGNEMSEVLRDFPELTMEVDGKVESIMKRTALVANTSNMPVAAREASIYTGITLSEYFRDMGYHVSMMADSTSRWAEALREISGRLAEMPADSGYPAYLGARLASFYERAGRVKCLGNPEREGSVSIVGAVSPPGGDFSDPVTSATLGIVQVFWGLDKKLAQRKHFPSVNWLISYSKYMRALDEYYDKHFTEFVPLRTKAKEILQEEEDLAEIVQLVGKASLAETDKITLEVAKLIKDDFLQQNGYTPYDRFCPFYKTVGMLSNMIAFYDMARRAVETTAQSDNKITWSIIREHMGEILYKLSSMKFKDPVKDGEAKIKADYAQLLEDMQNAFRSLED
T1 sequence (P31408 whole entry, looked up): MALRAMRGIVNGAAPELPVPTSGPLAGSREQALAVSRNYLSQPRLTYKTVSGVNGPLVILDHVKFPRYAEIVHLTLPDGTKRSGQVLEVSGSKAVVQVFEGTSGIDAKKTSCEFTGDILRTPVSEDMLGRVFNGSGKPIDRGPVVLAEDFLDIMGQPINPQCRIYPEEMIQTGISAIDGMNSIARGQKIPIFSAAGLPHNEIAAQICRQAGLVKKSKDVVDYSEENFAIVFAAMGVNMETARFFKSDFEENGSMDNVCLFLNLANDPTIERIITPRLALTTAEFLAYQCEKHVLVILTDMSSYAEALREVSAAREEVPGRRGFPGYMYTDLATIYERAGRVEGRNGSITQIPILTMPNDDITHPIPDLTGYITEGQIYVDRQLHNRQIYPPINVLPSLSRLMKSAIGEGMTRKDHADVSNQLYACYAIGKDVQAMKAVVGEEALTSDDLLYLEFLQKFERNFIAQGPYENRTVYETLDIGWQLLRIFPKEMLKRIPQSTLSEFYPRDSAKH
Procedure: (§1) Chromaffin granule membranes were prepared from adrenal glands collected from slaughtered cattle according to Reference A (Nathan Nelson et al., 1988, Chromaffin Granule Proton Pump, Methods in Enzymology, 157, 619-633). Chromaffin granule membranes prepared by sucrose density gradient centrifugation were suspended in 2 ml of SME buffer (20 mM MOPS-tris (pH 7.0), 0.3 M sucrose, 5 mM EDTA, 10 μg/ml leupeptin, and 10 μg/ml pepstatin)+25% glycerol, and the resulting suspension was aliquoted and stored at −80° C. Under these conditions, the ATP transport activity, the V-ATPase activity, and the catecholamine transport activity remain fully active for at least one year.
ATP-dependent proton transport by V-ATPase was measured according to Reference B. Proton transport activity was measured using a spectrofluorometer at excitation wavelength of 492 nm and a fluorescence wavelength 540 nm, wherein fluorescence quenching of acridine orange was used as an index (N=2). The transmembrane potential generated was measured using a spectrofluorometer at an excitation wavelength of 580 nm and a fluorescence wavelength of 630 nm, wherein fluorescence quenching of oxonol-V was used as an index (N=2). The acridine measurement liquid (2 ml) contained 20 mM MOPS-tris (pH 7.0), 0.2 M sucrose, 0.1 M potassium chloride, 5 mM magnesium acetate, 0.2 μg valinomycin, 2 μM acridine orange, and about 20 μg of chromaffin granules. The oxonol-V measurement liquid (2 ml) contained 20 mM MOPS-tris (pH 7.0), 0.3 M sucrose, 5 mM magnesium acetate, 5 μM oxonol-V, and about 20 μg of chromaffin granules.
Chromaffin granule membrane vesicles were prepared in the same manner as in Example 5, and uptake of radiolabeled ATP into the vesicles was measured. Transport activity of catecholamine (dopamine) and ATP-dependent proton transport by V-ATPase were also measured in the same manner as in Example 5.

[3] = molecular target: T1, V-ATPase; experiment: Transmembrane potential generated (oxonol-V fluorescence quenching) in chromaffin granules; assay type: biochemical, cattle; settings: role: inhibitor; 5 mM PEP, in presence of ATP, N=2
Procedure: as §1
ATP-dependent proton transport by V-ATPase was measured according to Reference B. Proton transport activity was measured using a spectrofluorometer at excitation wavelength of 492 nm and a fluorescence wavelength 540 nm, wherein fluorescence quenching of acridine orange was used as an index (N=2). The transmembrane potential generated was measured using a spectrofluorometer at an excitation wavelength of 580 nm and a fluorescence wavelength of 630 nm, wherein fluorescence quenching of oxonol-V was used as an index (N=2). […]

[4] = tested on: mouse auricle; experiment: Imiquimod-induced psoriasis model, oral imeglimin (Example 18); assay type: in vivo
Procedure: Experimental psoriatic symptoms were induced in a mouse auricle by imiquimod. Six-week-old male C57BL/6 mice (N=5) were acclimated for one week. On Days 1 to 7, 62.5 mg of 5% imiquimod cream (Beselna Cream 5%) (3.125 mg in terms of the active ingredient, manufactured by Mochida Pharmaceutical Co. Ltd.) was applied to the right auricle of the mice for 7 consecutive days (IMQ group). Once daily after the imiquimod application, the imeglimin administration group (IMQ+IMG group) received oral administration, at 40 mg/kg, of 500-mg Twymeeg (trademark) tablets (manufactured by Sumitomo Pharma Co. Ltd.) dissolved in physiological saline. The control group received an equal volume of physiological saline. On Day 8, the mice were euthanized by cervical dislocation, and auricle thickness was measured using a dial thickness gauge (manufactured by Adachi Sogyo Co., Ltd.).
Each excised mouse auricle was fixed in 4% paraformaldehyde at 4° C. overnight. After ethanol substitution, the auricle was embedded in paraffin, sectioned using a rotary microtome Leica RM2165 (thickness, […]), and subjected to HE staining or immunohistochemical staining. For the immunohistochemical staining, the sections were deparaffinized, washed in xylene, and rehydrated through graded alcohols. The sections were incubated in DAKO at 95° C. for 30 minutes. The sections were blocked at room temperature for 60 minutes and then incubated at room temperature for 2 hours to allow reaction with a TGM1 anti-rabbit polyclonal antibody (catalog number 12912-3-AP, manufactured by Proteintech). The sample was washed and then allowed to react with a secondary antibody (Alexa 544-conjugated secondary antibody (goat anti-rabbit IgG) (manufactured by Molecular Probes)) at room temperature for 60 minutes. After allowing reaction with DAPI at room temperature for 10 minutes, the sections were mounted with Fluoromount and imaged using a fluorescence microscope (BZ-X710, manufactured by Keyence).

[5] = tested on: α-SMA in mouse liver; experiment: α-SMA Western blotting of liver tissue of TAA-treated mice; assay type: in vivo; settings: imeglimin 200 mg/kg p.o. (FIG. 31)
Procedure: In accordance with Example 15, immunostaining of α-SMA in liver sections and observation by fluorescence microscopy were performed for the normal control group, the TAA group, and the TAA+IMG group, and for a TAA+Clo group, which was treated in the same manner as the TAA+IMG group except that clodronate, instead of imeglimin, was administered at 30 mg/kg by blending it in the drinking water from 1 week after the start of TAA administration.
Further, α-SMA was compared by Western blotting. Fresh mouse liver was homogenized in Western lysis buffer (20 mM Tris-HCl, pH 7.6, 150 mM NaCl, 2 mM EDTA, 0.5% NP-40) supplemented with protease and phosphatase inhibitor tablets (manufactured by Roche Applied Science), followed by centrifugation at 10,000×g at 4° C. for 5 minutes to obtain a supernatant. Protein content in the supernatant was quantified using a BCA Protein Assay Kit (manufactured by ThermoFisher Scientific). […] Thereafter, protein bands were visualized using an […] (ECL) Western blotting detection system (manufactured by GE Healthcare) and detected with an image analyzer LAS-4000 mini (manufactured by Fujifilm).

[6] = 40 mg/kg oral once daily, Day 8, N=5 (FIG. 33)

| Structure (SMILES) | uptake of ATP into isolated chromaffin granules [1] | change in acridine orange quenching level ([2]; 5 mM PEP, in presence of ATP, N=2) | inhibition of V-ATPase ([2]; up to 5 mM PEP (data not shown)) | change in oxonol-V quenching level [3] | inhibitory effect on psoriatic symptoms by TMG1 immunohistochemical images ([4]; 40 mg/kg oral once daily (FIG. 36)) | epidermal desquamation [4, 6] | psoriatic symptoms [4, 6] | imiquimod-induced auricle thickening ([4]; 40 mg/kg oral once daily, N=5 (FIG. 34)) | TAA-induced increase in α-SMA (Western blotting) [5] |
| --- | --- | --- | --- | --- | --- | --- | --- | --- | --- |
| C=C(OP(=O)(O)O)C(=O)O [PEP, phosphoenolpyruvic acid] | inhibited | did not change the level of quenching | did not inhibit | did not change the level of quenching | – | – | – | – | – |
| C[C@@H]1N=C(N)NC(N(C)C)=N1 [imeglimin] | – | – | – | – | supported by the immunohistochemical images of TMG1 | eliminated epidermal desquamation | reduced the psoriatic symptoms | suppressed | markedly suppressed |
